# Test results reported in ChEMBL document CHEMBL1201862, “PubChem BioAssay data set” (2004).
# Calls of active or inactive are those of the source.
# Tests used:
# CAAX prenyl protease 2 [1] = biological target: T1, CAAX prenyl protease 2 (Homo sapiens, UniProt Q9Y256); assay: inhibition of Ras-converting CAAX protease Rce1 – biochemical, yeast membranes, quenched-peptide fluorescence, cherry-pick, dose response (AID 588849)
# T1 sequence (Q9Y256 whole entry): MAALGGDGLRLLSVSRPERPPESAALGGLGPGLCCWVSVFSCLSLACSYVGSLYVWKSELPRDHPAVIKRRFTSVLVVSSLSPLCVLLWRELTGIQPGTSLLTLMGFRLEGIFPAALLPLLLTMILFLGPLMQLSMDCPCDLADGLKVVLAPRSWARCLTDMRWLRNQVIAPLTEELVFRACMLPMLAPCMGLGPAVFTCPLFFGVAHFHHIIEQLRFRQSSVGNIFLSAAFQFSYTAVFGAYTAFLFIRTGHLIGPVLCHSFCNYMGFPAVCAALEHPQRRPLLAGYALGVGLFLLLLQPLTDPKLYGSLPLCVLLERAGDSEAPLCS
# CAAX prenyl protease 2 [2] = biological target: T2, CAAX prenyl protease 2 (Saccharomyces cerevisiae S288c, UniProt Q03530); assay type: biochemical
# T2 sequence (Q03530 whole entry): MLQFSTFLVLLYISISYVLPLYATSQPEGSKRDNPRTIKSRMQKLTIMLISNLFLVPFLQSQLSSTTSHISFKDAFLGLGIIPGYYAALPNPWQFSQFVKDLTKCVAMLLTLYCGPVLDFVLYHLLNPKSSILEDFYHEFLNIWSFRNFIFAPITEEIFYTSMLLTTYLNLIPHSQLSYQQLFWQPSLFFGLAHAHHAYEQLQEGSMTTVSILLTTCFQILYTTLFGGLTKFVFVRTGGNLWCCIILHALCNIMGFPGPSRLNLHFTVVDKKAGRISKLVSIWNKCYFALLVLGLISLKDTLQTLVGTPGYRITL
# Trypsin = Trypsin (Sus scrofa, UniProt P00761); assay: trypsin protease activity blockade – biochemical, quenched peptide fluorescence, cherry-pick, selectivity assay for Rce1 protease inhibitor project, dose response (AID 488789)
# HEK293 [3] = assay: inhibition of NOD1-driven NF-kB reporter – cell-based, luminescence, uHTS, primary screen (AID 1578); assay type: functional; conditions: Homo sapiens
# [4] = alpha-synuclein stem-loop luciferase translation blockers – H4 neuroglioma cells, luminescence, confirmation (AID 1988); assay type: functional, cell-based
# HEK293 [5] = assay: EBV LMP1 TES2 canonical NF-kB signalling blockers – cell-based, HEK293, luciferase, cherry-pick, dose response (AID 588343); assay type: functional; conditions: Homo sapiens
# HEK293 [6] = assay: NOD2 signaling inhibitors in MDP-stimulated cells, cell-based, uHTS, luminescence (AID 2001); assay type: functional; conditions: Homo sapiens
# HEK293 [7] = assay: cells; assay type: functional, cell-based; conditions: Homo sapiens
# [8] = luciferase reporter signal suppression in cells – H4 neuroglioma cells, luminescence, dose response (AID 1990); assay type: functional, cell-based
# HEK293 [9] = assay: cells; assay type: functional, cell-based; conditions: Homo sapiens; remark: listed apart in the source
# [10] = blockers of bursicon-stimulated LGR2 cAMP reporter – cell-based, HEK293, CRE-luciferase reporter, cherry pick, set 2, dose response (AID 743343); assay type: functional;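 note: transfected cells were stimulated with diluted bursicon conditioned medium after compound addition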
# [11] = blockade of melanocortin 4 receptor signaling – cell-based, plate reader, cherry pick, counter-screen for LGR2 antagonist project, dose response (AID 743444); assay type: functional;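 note: transfected HEK 293 cells stimulated with alpha-MSH peptide; potency of inhibitors of the alpha-MSH evoked signal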
# [12] = Luminescence Cell-Based Dose Response HTS to Identify Inhibitors of 5'UTR Stem-Loop Driven Prion Protein mRNA Translation in H4 Neuroglioblastoma Cells. [Related pubchem assays: 1827 (Project Summary), 1813 (Primary HTS)]; assay type: functional
# [13] = DRD fibroblast viability loss – cell-based, non-viral oncogenic, luminescence, dose response (AID 1934); assay type: functional; conditions: Homo sapiens
# BJ [14] = assay: BJ-TERT-LT-ST fibroblast viability loss – cell-based, RAS-independent, luminescence, dose response (AID 1935); assay type: functional; conditions: Homo sapiens;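 note: BJ fibroblasts immortalized with TERT plus LT and ST oncogenes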
# BJ [15] = assay: BJ-TERT fibroblast viability loss – cell-based, RAS-independent, luminescence, dose response (AID 1933); assay type: functional; conditions: Homo sapiens
# BJ [16] = assay: growth inhibition of engineered Ras-driven BJ cells – cell-based, alamar blue fluorescence, cherrypicked samples, dose response (AID 2631); assay type: functional; conditions: Homo sapiens;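 note: confirmatory dose-response assay in RAS-dependent BJ fibroblasts engineered with TERT, LT and ST, with cytotoxicity read by fluorescence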
# BJ [17] = assay: cells; assay type: functional, cell-based; conditions: Homo sapiens
# Streptococcus = assay: GAS UMAA2166 growth inhibition – luminescence, BacTiterGlo, counter-screen for streptokinase expression inhibitor project, dose response (AID 1915); assay type: functional, organism-based;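 note: potency for reduction of bacterial viability or growth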
# [18] = tested on: Streptococcus sp. 'group A'; assay: Streptococcus pyogenes SK(-)GAS viability under kanamycin – luminescence, BacTiterGlo, confirmation, counter-screen for streptokinase expression inhibitor project, dose response (AID 1900); assay type: functional, organism-based
# [19] = viability of uninfected HEp-2 cells – cell-based, HTS, cytotoxicity control for RSV inhibitor project, dose response (AID 2410); assay type: functional; conditions: human respiratory syncytial virus
# Streptokinase A = biological target: T3, Streptokinase A (Streptococcus pyogenes serotype M1, UniProt P10520); assay: viability-normalized secreted streptokinase activity reduction – plasminogen activation absorbance, OD405, dose response (AID 1914); assay type: functional, Streptococcus pyogenes M1 GAS;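 note: secreted streptokinase activity via plasminogen activation per viability signal from cell pellet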
# T3 sequence (P10520 whole entry): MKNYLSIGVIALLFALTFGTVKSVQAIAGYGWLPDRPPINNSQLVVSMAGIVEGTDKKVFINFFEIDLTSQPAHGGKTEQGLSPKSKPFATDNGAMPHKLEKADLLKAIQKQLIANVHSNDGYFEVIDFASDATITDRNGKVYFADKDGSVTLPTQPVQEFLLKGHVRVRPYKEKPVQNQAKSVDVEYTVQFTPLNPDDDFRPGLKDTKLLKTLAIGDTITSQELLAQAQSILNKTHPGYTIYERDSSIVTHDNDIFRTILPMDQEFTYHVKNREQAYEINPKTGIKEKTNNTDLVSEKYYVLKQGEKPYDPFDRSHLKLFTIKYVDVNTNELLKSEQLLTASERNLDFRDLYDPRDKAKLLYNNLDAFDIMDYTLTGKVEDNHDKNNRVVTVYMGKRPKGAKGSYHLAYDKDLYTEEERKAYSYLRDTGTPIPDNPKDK
# [20] = biological target: T4, Nuclear receptor subfamily 0 group B member 1 (Homo sapiens, UniProt P51843); assay: Luminescence-based cell-based high throughput dose response assay for inhibitors of the orphan nuclear receptor subfamily 0, group B, member 1 (DAX1; NR0B1). [Related pubchem assays (depositor defined):AID504766, AID504790]; assay type: functional
# T4 sequence (P51843 whole entry): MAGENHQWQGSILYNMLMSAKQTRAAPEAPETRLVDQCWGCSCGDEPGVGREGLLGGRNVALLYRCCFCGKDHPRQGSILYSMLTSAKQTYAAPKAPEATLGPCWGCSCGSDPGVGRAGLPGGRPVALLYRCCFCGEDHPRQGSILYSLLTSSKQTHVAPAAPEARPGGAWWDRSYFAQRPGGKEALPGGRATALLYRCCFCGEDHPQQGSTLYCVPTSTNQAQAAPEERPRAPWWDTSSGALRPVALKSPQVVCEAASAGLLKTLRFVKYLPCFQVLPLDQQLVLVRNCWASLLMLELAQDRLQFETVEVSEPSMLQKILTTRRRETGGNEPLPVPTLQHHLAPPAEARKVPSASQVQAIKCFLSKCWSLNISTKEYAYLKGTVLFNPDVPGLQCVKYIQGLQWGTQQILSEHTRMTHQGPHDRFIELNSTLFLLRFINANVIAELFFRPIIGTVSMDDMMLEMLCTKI
# HEK293 [21] = assay: cells; assay type: functional, cell-based; conditions: Homo sapiens; remark: listed apart in the source
# [22] = Fluorescence-based cell-based high throughput dose response assay for inhibitors of the interaction of nucleotide-binding oligomerization domain containing 2 (NOD2) and the receptor-interacting serine-threonine kinase 2 (RIPK2).; assay type: functional; conditions: Homo sapiens
# [23] = biological target: T5, Microphthalmia-associated transcription factor (Homo sapiens, UniProt O75030); assay: reducers of TRPM1 reporter luminescence, concentration series – cell-based, SK-MEL-5, cherry-picked, set 3, MITF inhibitor project, dose response (AID 493073); assay type: functional;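 note: SK-MEL-5 melanoma cells with luciferase driven by the MITF target TRPM1 promoter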
# T5 sequence (O75030 whole entry): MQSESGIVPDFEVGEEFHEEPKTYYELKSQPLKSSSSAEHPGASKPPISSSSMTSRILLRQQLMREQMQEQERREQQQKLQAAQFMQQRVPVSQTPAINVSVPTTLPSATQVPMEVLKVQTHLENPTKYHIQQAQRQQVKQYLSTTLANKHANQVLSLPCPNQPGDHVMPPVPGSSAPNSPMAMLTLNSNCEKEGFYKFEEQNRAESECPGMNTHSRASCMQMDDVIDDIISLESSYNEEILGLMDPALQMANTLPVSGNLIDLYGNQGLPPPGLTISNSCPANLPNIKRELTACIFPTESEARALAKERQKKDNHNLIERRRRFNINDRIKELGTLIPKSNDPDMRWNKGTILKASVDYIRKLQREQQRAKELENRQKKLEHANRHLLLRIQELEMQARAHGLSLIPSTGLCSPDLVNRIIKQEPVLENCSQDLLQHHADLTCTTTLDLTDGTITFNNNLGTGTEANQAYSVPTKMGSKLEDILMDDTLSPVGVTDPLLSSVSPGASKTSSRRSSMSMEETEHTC
# [24] = biological target: T6, Rac GTPase-activating protein 1 (Homo sapiens, UniProt Q9H0H5); assay: blockers of MgcRacGAP-driven Rac1 GTP hydrolysis – biochemical, ADP Hunter fluorescence, primary and confirmatory, confirmation (AID 624330); assay type: functional
# T6 sequence (Q9H0H5 whole entry): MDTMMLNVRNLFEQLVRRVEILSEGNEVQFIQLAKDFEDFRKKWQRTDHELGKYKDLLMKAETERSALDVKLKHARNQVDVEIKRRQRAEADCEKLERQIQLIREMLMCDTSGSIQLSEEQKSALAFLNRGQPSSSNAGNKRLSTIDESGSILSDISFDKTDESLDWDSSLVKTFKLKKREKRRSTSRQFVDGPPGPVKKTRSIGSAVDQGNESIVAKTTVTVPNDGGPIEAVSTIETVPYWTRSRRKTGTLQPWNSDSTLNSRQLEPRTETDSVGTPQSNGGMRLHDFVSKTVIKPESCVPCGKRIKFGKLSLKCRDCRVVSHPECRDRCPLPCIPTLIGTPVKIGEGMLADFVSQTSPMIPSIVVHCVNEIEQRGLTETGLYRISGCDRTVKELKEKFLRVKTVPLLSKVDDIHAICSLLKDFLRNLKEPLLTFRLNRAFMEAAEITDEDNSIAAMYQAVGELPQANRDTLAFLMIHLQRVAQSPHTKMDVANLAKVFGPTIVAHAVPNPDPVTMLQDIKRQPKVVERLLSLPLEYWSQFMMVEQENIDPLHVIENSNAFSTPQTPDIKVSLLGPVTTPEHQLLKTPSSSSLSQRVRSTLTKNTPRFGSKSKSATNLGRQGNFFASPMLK
# [25] = Luminescence Cell-Based Dose Response HTS to Identify Activators of Luciferase Translation or Activity in H4 […] Cells. [Related pubchem assays: 1829 (Project Summary), 1814 (Primary HTS)]; assay type: functional
# Nonstructural protein 1 = Nonstructural protein 1 (Influenza A virus, UniProt Q194T2); assay type: functional, Influenza A virus (A/California/07/2009(H1N1))
# Chain of Nonstructural protein 1 (Q194T2 whole entry): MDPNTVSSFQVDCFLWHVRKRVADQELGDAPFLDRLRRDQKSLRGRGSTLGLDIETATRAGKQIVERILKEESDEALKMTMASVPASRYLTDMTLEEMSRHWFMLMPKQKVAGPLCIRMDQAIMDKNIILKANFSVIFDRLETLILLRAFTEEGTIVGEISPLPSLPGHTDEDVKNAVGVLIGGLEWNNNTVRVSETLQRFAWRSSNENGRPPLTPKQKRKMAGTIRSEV
# Chain of Trypsin (P00761 whole entry): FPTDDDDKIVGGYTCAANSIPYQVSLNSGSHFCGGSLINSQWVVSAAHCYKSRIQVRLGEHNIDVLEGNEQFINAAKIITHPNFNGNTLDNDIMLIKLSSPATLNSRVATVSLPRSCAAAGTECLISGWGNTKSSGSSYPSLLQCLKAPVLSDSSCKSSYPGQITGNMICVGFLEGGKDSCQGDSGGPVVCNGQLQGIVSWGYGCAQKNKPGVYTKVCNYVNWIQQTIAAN
structure (smiles),measurement,setting,value
CCn1c2ccccc2c2cc(/C=N/NC(=O)c3ccc(O)cc3)ccc21,AC50,CAAX prenyl protease 2 [1],40.3 µM (active)
same,AC50,CAAX prenyl protease 2 [2],21.6 µM (active)
same,AC50,Trypsin,4.51 µM (active)
O=C(c1ccc(Cn2cnnn2)cc1)N1CCCC(Nc2ccc(F)cc2)C1 (stereo not given),AC50,CAAX prenyl protease 2 [1],22.6 µM (active)
same,AC50,CAAX prenyl protease 2 [2],5.9 µM (active)
same,AC50,Trypsin,5.79 µM (active)
O=C1OCCC1Sc1nnc(-c2ccc(Cl)cc2Cl)o1 (stereo not given),EC50,HEK293 [3],6.32 µM (active)
same,EC50,[4],8.84 µM (active)
same,AC50,HEK293 [5],7.18 µM (active)
same,IC50,HEK293 [6],13 µM (inactive)
same,IC50,HEK293 [7],6.93 µM (active)
same,EC50,[8],7.77 µM (active)
same,IC50,HEK293 [9],> 20 µM (inactive)
same,AC50,[10],9.34 µM (active)
same,AC50,[11],9.84 µM (active)
same,EC50,[12],9.97 µM (active)
Cc1ccc(/C=C2\SC(=S)N(CCCC(=O)N3CCOCC3)C2=O)cc1,EC50,[13],15.3 µM (active)
same,EC50,BJ [14],> 150 µM (inconclusive)
same,EC50,BJ [15],7.06 µM (inconclusive)
same,EC50,BJ [16],> 66.7 µM (inactive)
same,EC50,BJ [17],> 150 µM (not active)
COc1cc(-c2c(C#N)c(N)nc3c2c(C)nn3-c2ccc(C)c(C)c2)cc(OC)c1OC,AC50,CAAX prenyl protease 2 [1],11.2 µM (active)
same,EC50,Streptococcus,36.4 µM (active)
same,EC50,[18],5.69 µM (active)
same,CC50,[19],22.1 µM (active)
same,EC50,Streptokinase A,> 150 µM (not active)
same,IC50,cells,31.8 µM (active)
same,AC50,Trypsin,16.1 µM (active)
Fc1ccccc1/C=N/Nc1cc(N2CCCCC2)ncn1,IC50,[20],> 67.5 µM (inactive)
same,IC50,HEK293 [21],> 67.5 µM (inactive)
CCN(CC)CCC(=O)N1C/C(=C/c2ccccc2)C(=O)/C(=C\c2ccccc2)C1,AC50,HEK293 [5],4.89 µM (active)
same,IC50,[22],3.5 µM (active)
same,AC50,[23],4.72 µM (active)
same,IC50,[24],111 µM (active)
O=C(Nc1ccc(F)cc1)/C(Cl)=C/c1ccccc1,IC50,[20],> 67.5 µM (inactive)
same,EC50,[25],5.09 µM (active)
same,IC50,HEK293 [21],> 67.5 µM (inactive)
Cc1ccnc2nc(C(=O)Nc3nc(-c4ccccn4)cs3)nn12,IC50,Nonstructural protein 1,5.06 µM (active)
same,IC50,[20],> 67.5 µM (inactive)
same,IC50,HEK293 [21],65.2 µM (inactive)
